Results published in patent US20240208950A1, “COMPOSITIONS AND METHODS FOR TREATMENT OF CERVICAL AND OVARIAN CANCER” (SOUTH DAKOTA BOARD OF REGENTS, priority 2021, published 2024).

What was measured:
[1] = system: β-catenin in SiHa cells; test: Western blot of β-catenin in nuclear and cytoplasmic extracts, SiHa; assay type: cell-based, human; conditions: 15 μM, 24 hours
Description: In the Example shown at FIGS. 9A-9E, cells were subjected to treatment with 15 μM concentration of ORM-Br for 24 hours, nuclear extracts were prepared and western blot analysis were used to detect the protein levels of β-catenin. […] Western blots were reprobed with β-actin and Histone H3 antibodies as an internal control.
The nuclear and cytoplasmic lysates were prepared using respective buffers. The cell lysates (40 μg) were subjected to SDS-PAGE and blotted on PVDF membrane. The membranes were further blocked in 5% milk diluted in 1×TBST solution for 1 hour and incubated overnight in primary antibodies. The following day, the membranes were washed and incubated with secondary antibodies for 1 hour, washed again and developed on a UVP system using chemi-luminiscent reagents.
The EMT process in a cell is driven by growth factors or other signaling proteins such as Wnt/beta-catenin and extracellular matrix component that may stimulate cellular growth and migration. The effect of Br-ORM on β-catenin signaling was examined.
FIG. 15. Effect OF Br-ORM on β-catenin signaling and molecular docking of Br-ORM with β-catenin. Effect of Br-ORM on β-catenin distribution in cytoplasm and nucleus of CaSki and SiHa cells. […] Effect of Br-ORM on β-catenin localization in CaSki cells as determined by confocal microscopy (FIG. 15B(i)-(ii)). […]

[2] = system: EMT markers and MMPs in CaSki cells; test: Western blot for EMT markers and MMPs, CaSki; assay type: cell-based, human; conditions: 24 hours
Description: In a further example, cell lysates and western blot analysis was conducted for EMT markers and MMPs. […] In this example, about 70% of confluent SiHa and CaSki were treated with ORM-Br ([…]) for 24 hours. Cell lysates were prepared, and western blot analysis were conducted for EMT markers and MMPs analysis. The effect of ORM-Br on protein levels of cell-cycle regulatory proteins (cyclin E1 and p27) in both CaSki and SiHa cell lines are shown.
The effect of Br-ORM on protein expression in cervical cancer cells were determined by Western blot analysis by using specific antibodies.
Epithelial mesenchymal transition (EMT) is the basic characteristic of cancer cells in which epithelial cells undergo morphologic and molecular changes that transform the cells to mesenchymal, highly metastatic (invasive and motile), and drug-resistant phenotypes. Thus, targeting EMT may reduce the invasive phenotypes of a cancer cell and have significant advantage to overcome drug resistance. It has been reported that β-catenin is involved in invasion and metastasis via inducing EMT in various tumor cells. The effect of Br-ORM treatment on various EMT markers in cervical cancer cells was evaluated. […] The effect of Br-ORM on expression of EMT markers in cervical cancer cells compared to untreated group by use of qPCR analysis was determined. […] Expression of E-cadherin in cervical cancer cells treated with Br-ORM (10 μM) for 18 hours was also determined by immunofluorescence and confocal microscopy. Images were captured under 60× magnification and representative images are presented (FIG. 14G).
FIG. 14. Br-ORM decreases migration, invasion and attenuates EMT in cervical cancer cells. Effect of Br-ORM on cell migration of cervical cancer cells as determined by agarose bead (FIG. 14A), scratch wound healing (FIG. 14B), and Boyden chamber assay (FIG. 14C). AB denotes agarose bead while MC denotes migratory cells. Arrows indicate the distance of cervical cancer (CaSki and SiHa) cells migration in control and Br-ORM treated groups (FIG. 14A(i)-(ii)). […] Closure of wound was determined and photographed using phase contrast microscopy. […] Bar graph represent the quantification of migrated CaSki cells of control and Br-ORM treated groups (FIG. 14C(ii)). […] Effect of Br-ORM treatment on invasion of CaSki cells as determined by a commercially available kit (BD Biosciences) as described in materials and methods. In brief, 24 hours post-treatment of Br-ORM, invaded cells were fixed, stained and counted. […] Bar graph represent the quantification of invaded CaSki cells of control and Br-ORM treated groups (FIG. 14D(ii)). […] Effect of Br-ORM on E-cadherin expression in cervical cancer cells as determined by confocal microscopy in control and Br-ORM treated cells after 18 hours.

Structure (SMILES): COc1ccc2c(c1)OC(C)(C)C(c1ccc(Br)cc1)C2c1ccc(OCCN2CCCC2)cc1 (stereo not drawn) [ORM-Br]
- nuclear β-catenin expression [1]: decrease in expression of nuclear β-catenin
- nuclear β-catenin expression ([1]; listed as Br-ORM): inhibited nuclear β-catenin
- EMT associated markers (N-cadherin, vimentin and snail) expression [2]: inhibits the EMT associated markers
- expression of E-cadherin [2]: induced the expression of E-cadherin
- expression of MMP2 and MMP9 [2]: inhibited the expression of MMP2 and MMP9
- EMT associated markers (N-cadherin, vimentin and snail) expression ([2]; listed as Br-ORM): marked inhibition
